Assay results published in US11420984B2, “Arginase inhibitors and methods of use thereof” (AstraZeneca AB, priority 2018, dated 2022).

Experiments:
Human Arginase 2 = Human Arginase 2 (Homo sapiens (Human), UniProt P78540); assay: Human Arginase 2 enzyme inhibition (thioarginine/DTNB absorbance assay); assay type: biochemical; details: recombinant enzyme 5 nM, 0.5 mM thioarginine premix, 60 min
Procedure: (§1) The thiol group was detected with Ellman's reagent, 5,5′-dithiobis(2-nitrobenzoic acid) (DTNB). DTNB reacts with the thiol to give the mixed disulfide and 2-nitro-5-thiobenzoic acid (TNB) which is quantified by the absorbance of the anion (TNB^2−) at 412 nm.
(§2) The assays were run in clear 384 well plates (Greiner cat no: 781101). […] Two pre-mixes were prepared from reagents thawed immediately before addition to assay plates. Pre-mix one comprised human Arginase 1 or human Arginase 2, at a final concentration of 5 nM and 0.5 mM DTNB in assay buffer, 45 mM HEPES pH7.5, brij 35, 0.045% (w/v) and 100 μM MnCl2. Pre-mix two comprised freshly thawed 0.5 mM thioarginine in assay buffer.
(§3) Assay plates were centrifuged prior to reading absorbance at 412 nm in a Pherastar multi-mode plate reader to collect data at time point 0 (T0). The plates were incubated at room temperature for 60 min prior to reading again to collect data at time point 1 (T1). Data is derived by subtracting the A412 signal measured at T0 (time point 0) from that measured at T1 (time point 1). The data was transformed to % effect using the equation: Compound % effect=100*[(X−min)/(max−min)], where X represents the normalized value for the compound based on the Min (vehicle) and Max (reference compound) inhibition control.

Human Arginase 1 = Human Arginase 1 (Homo sapiens (Human), UniProt P05089); assay: Human Arginase 1 enzyme inhibition (thioarginine/DTNB absorbance assay); assay type: biochemical; details: recombinant enzyme 5 nM, 0.5 mM thioarginine premix, 60 min
Human Arginase 1, sequence (P05089 whole entry): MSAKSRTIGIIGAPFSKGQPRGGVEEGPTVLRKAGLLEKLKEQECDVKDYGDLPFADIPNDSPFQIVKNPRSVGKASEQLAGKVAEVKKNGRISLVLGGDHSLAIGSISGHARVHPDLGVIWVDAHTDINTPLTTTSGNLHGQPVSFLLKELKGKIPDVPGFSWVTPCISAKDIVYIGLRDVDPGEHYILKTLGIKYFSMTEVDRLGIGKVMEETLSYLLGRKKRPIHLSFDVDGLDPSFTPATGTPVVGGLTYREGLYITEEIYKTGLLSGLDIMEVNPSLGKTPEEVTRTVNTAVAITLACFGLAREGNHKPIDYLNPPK
Procedure: as §1, §2, §3

[1] = Bioavailability / pharmacokinetic study in male rats (IV and PO); assay type: in vivo, rat; details: plasma, pro-drug itself, observed when dosed as pro-drug, male rat; for clearance / Vd: IV 2 mg/kg; for Vd: read-out: Vdss; for AUC / Cmax / Tmax: PO 5 mg/kg; for bioavailability: PO 5 mg/kg vs IV 2 mg/kg
Procedure: Example 8 was formulated in 0.9% w/v saline pH 4 (adjusted with 1M HCl) for IV dosing. The formulation was dosed at 2 mg/kg by femoral catheter to two male rats each (170-250 g). Jugular vein catheter serial blood samples were taken at 0.033, 0.083, 0.167, 0.5, 1, 2, 4, 8, and 24 hrs post-dose. For PO dosing, Example 8 was formulated in deionized water pH 4 (adjusted with 1M HCl) and dosed at 5 mg/kg by oral gavage to two male rats each (170-250 g). Serial blood samples were taken by jugular vein catheter at 0.25, 0.5, 1, 1.5, 2, 3, 4, 8, and 24 hrs post dose. Plasma samples were generated from blood using low speed centrifugation. […] The samples and standards were extracted by precipitation with two volumes of acetonitrile followed by centrifugation. […] Where appropriate, measured and not nominal doses were used to calculate bioavalability.

Human Arginase 2, sequence (P78540 23-354): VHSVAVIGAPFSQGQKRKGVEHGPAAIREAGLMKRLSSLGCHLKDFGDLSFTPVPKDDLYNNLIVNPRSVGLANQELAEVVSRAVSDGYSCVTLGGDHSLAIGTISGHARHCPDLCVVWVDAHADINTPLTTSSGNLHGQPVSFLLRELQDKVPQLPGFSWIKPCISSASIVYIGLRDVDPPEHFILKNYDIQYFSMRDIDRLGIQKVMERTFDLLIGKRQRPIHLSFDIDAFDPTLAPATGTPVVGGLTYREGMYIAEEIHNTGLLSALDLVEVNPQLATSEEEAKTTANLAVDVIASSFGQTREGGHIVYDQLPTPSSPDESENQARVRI

Row | SMILES | IC50 (Human Arginase 2) [nM] | IC50 (Human Arginase 1) [nM] | clearance [1] [mL/min/kg] | Vd [1] [L/kg] | AUC [1] [µM·h] | Cmax [1] [nM] | Tmax [1] [min] | bioavailability [1] [%]
1 | O=C(O)[C@@]1(CCCCB(O)O)C[C@H](O)CN1 [Example 2, (2R,4S)-2-(4-boronobutyl)-4-hydroxypyrrolidine-2-carboxylic acid] | 21400 | 26600 | – | – | – | – | – | –
2 | O=C(O)[C@@]1(CCCCB(O)O)C[C@@H](O)CN1 [Example 3, (2R,4R)-2-(4-boronobutyl)-4-hydroxypyrrolidine-2-carboxylic acid] | 10400 | 4550 | – | – | – | – | – | –
3 | CC(C)[C@@H](N)C(=O)N[C@H]1CN[C@@](CCCCB(O)O)(C(=O)O)C1 [Example 10, (2R,4R)-4-((R)-2-amino-3-methylbutanamido)-2-(4-boronobutyl)pyrrolidine-2-carboxylic acid] | 4770 | 3770 | – | – | – | – | – | –
4 | O=C(N[C@H]1CN[C@@](CCCCB(O)O)(C(=O)O)C1)[C@@H]1CCCN1 [Example 12, (2R,4R)-2-(4-boronobutyl)-4-((S)-pyrrolidine-2-carboxamido)pyrrolidine-2-carboxylic acid] | 850 | 700 | – | – | – | – | – | –
5 | NCC(=O)N[C@H]1CN[C@@](CCCCB(O)O)(C(=O)O)C1 [Example 13, (2R,4R)-4-(2-aminoacetamido)-2-(4-boronobutyl)pyrrolidine-2-carboxylic acid] | 630 | 430 | 17.9 | 0.2 | 0.62 | 460 | 30 | 3.8
6 | CC[C@H](C)[C@H](N)C(=O)N[C@H]1CN[C@@](CCCCB(O)O)(C(=O)O)C1 [Example 15, (2R,4R)-4-((2S,3S)-2-amino-3-methylpentanamido)-2-(4-boronobutyl)pyrrolidine-2-carboxylic acid] | 260 | 310 | 104 | 0.46 | – | – | – | –
7 | CC(C)C[C@H](N)C(=O)N[C@H]1CN[C@@](CCCCB(O)O)(C(=O)O)C1 [Example 16, (2R,4R)-4-((S)-2-amino-4-methylpentanamido)-2-(4-boronobutyl)pyrrolidine-2-carboxylic acid] | 310 | 310 | 585 | 7.41 | – | – | – | –
8 | COC[C@H](N)C(=O)N[C@H]1CN[C@@](CCCCB(O)O)(C(=O)O)C1 [Example 18, (2R,4R)-4-((S)-2-amino-3-methoxypropanamido)-2-(4-boronobutyl)pyrrolidine-2-carboxylic acid] | 380 | 320 | 317 | 0.64 | – | – | – | –
9 | CC(C)(O)[C@H](N)C(=O)N[C@H]1CN[C@@](CCCCB(O)O)(C(=O)O)C1 [Example 20, (2R,4R)-4-[[(2S)-2-amino-3-hydroxy-3-methyl-butanoyl]amino]-2-(4-boronobutyl)pyrrolidine-2-carboxylic acid] | 520 | 340 | 8.9 | 0.29 | 6.9 | 1800 | 60 | 25.5
10 | CN[C@H]1CN[C@@](CCCCB(O)O)(C(=O)O)C1 [Example 23, (2R,4R)-2-(4-boronobutyl)-4-(methylamino)pyrrolidine-2-carboxylic acid] | 2120 | 1140 | – | – | – | – | – | –
11 | CN(C)[C@H]1CN[C@](CCCCB(O)O)(C(=O)O)C1 [Example 26, (2S,4R)-2-(4-boronobutyl)-4-(dimethylamino)pyrrolidine-2-carboxylic acid] | 150 | 60 | – | – | – | – | – | –
12 | NCCN[C@H]1CN[C@](CCCCB(O)O)(C(=O)O)C1 [Example 28, (2S,4R)-4-(2-aminoethylamino)-2-(4-boronobutyl)pyrrolidine-2-carboxylic acid] | 190 | 90 | – | – | – | – | – | –

Continued by falling IC50 (Human Arginase 2), values first:

Row | IC50 (Human Arginase 2) [nM] | IC50 (Human Arginase 1) [nM] | clearance [1] [mL/min/kg] | Vd [1] [L/kg] | AUC [1] [µM·h] | Cmax [1] [nM] | Tmax [1] [min] | bioavailability [1] [%] | SMILES
13 | 24600 | 10800 | – | – | – | – | – | – | CN(C)[C@H]1CN[C@@](CCCCB(O)O)(C(=O)O)C1 [Example 25, (2R,4R)-2-(4-boronobutyl)-4-(dimethylamino)pyrrolidine-2-carboxylic acid]
14 | 23000 | 14700 | – | – | – | – | – | – | O=C(O)[C@@]1(CCCCB(O)O)CCCN1 [Example 1, (R)-2-(4-boronobutyl)pyrrolidine-2-carboxylic acid]
15 | 9280 | 5270 | – | – | – | – | – | – | CC(C)[C@H](N)C(=O)N(C)[C@H]1CN[C@@](CCCCB(O)O)(C(=O)O)C1 [Example 29, (2R,4R)-4-[[(2S)-2-amino-3-methyl-butanoyl]-methyl-amino]-2-(4-boronobutyl)pyrrolidine-2-carboxylic acid]
16 | 3320 | 1430 | – | – | – | – | – | – | NCCN[C@H]1CN[C@@](CCCCB(O)O)(C(=O)O)C1 [Example 27, (2R,4R)-4-(2-aminoethylamino)-2-(4-boronobutyl)pyrrolidine-2-carboxylic acid]
17 | 2420 | 1350 | – | – | – | – | – | – | CC(C)[C@H](N)C(=O)N(C)[C@H]1CN[C@](CCCCB(O)O)(C(=O)O)C1 [Example 30, (2S,4R)-4-[[(2S)-2-amino-3-methyl-butanoyl]-methyl-amino]-2-(4-boronobutyl)pyrrolidine-2-carboxylic acid]
18 | 1320 | 930 | – | – | – | – | – | – | NC[C@H](N)C(=O)N[C@H]1CN[C@@](CCCCB(O)O)(C(=O)O)C1 [Example 22, (2R,4R)-2-(4-boronobutyl)-4-[[(2S)-2,3-diaminopropanoyl]amino]pyrrolidine-2-carboxylic acid]
19 | 680 | 480 | – | – | – | – | – | – | CC(C)[C@](C)(N)C(=O)N[C@H]1CN[C@@](CCCCB(O)O)(C(=O)O)C1 [Example 21, (2R,4R)-4-[[(2S)-2-amino-2,3-dimethyl-butanoyl]amino]-2-(4-boronobutyl)pyrrolidine-2-carboxylic acid]
20 | 560 | 610 | – | – | – | – | – | – | C[C@H](N)C(=O)N[C@H]1CN[C@@](CCCCB(O)O)(C(=O)O)C1 [Example 8, (2R,4R)-4-((S)-2-aminopropanamido)-2-(4-boronobutyl)pyrrolidine-2-carboxylic acid]
21 | 330 | 320 | 33.3 | 0.2 | 0.24 | 600 | 15 | 3.2 | CC(C)[C@H](N)C(=O)N[C@H]1CN[C@@](CCCCB(O)O)(C(=O)O)C1 [Example 9, (2R,4R)-4-((S)-2-amino-3-methylbutanamido)-2-(4-boronobutyl)pyrrolidine-2-carboxylic acid]
22 | 310 | 260 | – | – | – | – | – | – | CC[C@H](N)C(=O)N[C@H]1CN[C@@](CCCCB(O)O)(C(=O)O)C1 [Example 14, (2R,4R)-4-((S)-2-aminobutanamido)-2-(4-boronobutyl)pyrrolidine-2-carboxylic acid]
23 | 230 | 200 | 40.5 | 0.36 | 0.38 | 430 | 22.8 | 5.8 | N[C@@H](CO)C(=O)N[C@H]1CN[C@@](CCCCB(O)O)(C(=O)O)C1 [Example 17, (2R,4R)-4-((S)-2-amino-3-hydroxypropanamido)-2-(4-boronobutyl)pyrrolidine-2-carboxylic acid]
24 | 200 | 210 | – | – | – | – | – | – | CC(C)(C)[C@H](N)C(=O)N[C@H]1CN[C@@](CCCCB(O)O)(C(=O)O)C1 [Example 11, (2R,4R)-4-((S)-2-amino-3,3-dimethylbutanamido)-2-(4-boronobutyl)pyrrolidine-2-carboxylic acid]
25 | 10 | < 3 | – | – | – | – | – | – | CN[C@H]1CN[C@](CCCCB(O)O)(C(=O)O)C1 [Example 24, (2S,4R)-2-(4-boronobutyl)-4-(methylamino)pyrrolidine-2-carboxylic acid]
